Several values for one entry are separate records, joined by “and”; a condition that tells them apart may be missing. Equal values may be shown once.
Key:
[1] = biological target: rRyR1 (Oryctolagus cuniculus, UniProt P11716); experiment: time-lapse [Ca2+]ER fluorescence assay, HEK293 cells; format: cell-based, rabbit
[2] = biological target: Sf RyR (Spodoptera frugiperda, UniProt A0A4P8L6R5); experiment: as above; format: cell-based
[3] = biological target: T1, chiRyR (Oryctolagus cuniculus, UniProt P11716, C4657I/F4564Y/L4792S/R4563K); experiment: cell-based; design: species or system rabbit
[4] = biological target: T2, rRyR1 R4563K (Oryctolagus cuniculus, UniProt P11716, R4563K); experiment: time-lapse [Ca2+]ER fluorescence assay, HEK293 cells; format: cell-based, rabbit; settings: n = 3
T2 construct: expressed in transfected cells

[5] = biological target: T3, rRyR1 C4657I (Oryctolagus cuniculus, UniProt P11716, C4657I); experiment: as above; format: cell-based, rabbit; settings: n = 3
T3 construct: expressed in transfected cells

[6] = biological target: T4, rRyR1 L4792S (Oryctolagus cuniculus, UniProt P11716, L4792S); experiment: as above; format: cell-based, rabbit; settings: n = 3
T4 construct: expressed in transfected cells

[7] = biological target: T5, chiRyR-I4657M/G4819E (Oryctolagus cuniculus, UniProt P11716, C4657M/F4564Y/G4819E/L4792S/R4563K); experiment: cell-based; design: species or system rabbit
[8] = biological target: Sf RyR_I4734M/G4891E (Spodoptera frugiperda, UniProt A0A4P8L6R5, G4891E/I4734M); experiment: cell-based
[9] = biological target: T1, chiRyR; experiment: biochemical; format: biochemical, rabbit
[10] = biological target: T5, chiRyR-I4657M/G4819E; experiment: biochemical; format: biochemical, rabbit
[11] = tested on: Drosophila melanogaster RyR M4758I; experiment: Bioassay of gene-edited Drosophila melanogaster (feeding, mortality after 24 h); format: in vivo; settings: 24 h feeding, n = 30
[12] = tested on: Drosophila melanogaster RyR G4915E; experiment: as above; format: in vivo; design: key to LD50: AA.: All alive
[13] = tested on: diamondback moth (Plutella xylostella); settings: in vivo; cited from earlier work
[14] = tested on: Spodoptera frugiperda; design: method as in PMID 31157506; settings: in vivo; cited from earlier work

Cc1cc(C(F)(C(F)(F)F)C(F)(F)F)ccc1NC(=O)c1cccc(I)c1C(=O)NC(C)(C)CS(C)(=O)=O [FLU, flubendiamide]
EC50 [1]: 4500 nM | F/F0 ([1]; FLU 0.01 uM): 0.9514 and 0.951 and 0.9574 | F/F0 ([1]; FLU 0.3 uM): 0.9294 and 0.929 and 0.9697 | F/F0 ([1]; FLU 1 uM): 0.9591 and 0.9606 and 0.9686 | F/F0 ([1]; FLU 3 uM): 0.9637 and 0.9616 and 0.9316 | F/F0 ([1]; FLU 10 uM): 0.9738 and 0.9803 and 0.9687 | F/F0 ([1]; FLU 30 uM): 0.9272 and 0.9023 and 0.8951 | F/F0 ([1]; FLU 100 uM): 0.8351 and 0.825 and 0.8009 | F/F0 ([1]; FLU 150 uM): 0.7879 and 0.7717 and 0.7578 | F/F0 ([2]; FLU 1e-5 uM): 0.9517 and 0.959 and 0.9803 and 0.9606 and 0.9626 and 0.9095 | F/F0 ([2]; FLU 0.0001 uM): 0.9669 and 0.9979 and 0.9587 | F/F0 ([2]; FLU 0.001 uM): 0.9934 and 1.004 and 1.015 and 1.0081 and 0.9724 and 0.9466 | F/F0 ([2]; FLU 0.005 uM): 0.9953 and 0.9503 and 0.9362 | F/F0 ([2]; FLU 0.01 uM): 0.964 and 0.9628 and 0.9439 and 0.9365 and 0.909 and 0.8287 | F/F0 ([2]; FLU 0.1 uM): 0.6874 and 0.7084 and 0.7834 and 0.606 and 0.5494 and 0.4561 | F/F0 ([2]; FLU 0.3 uM): 0.3286 and 0.3161 and 0.2878 | F/F0 ([2]; FLU 0.5 uM): 0.3948 and 0.4026 and 0.4259 and 0.3563 and 0.3618 and 0.3874 | F/F0 ([2]; FLU 1 uM): 0.4531 and 0.5278 and 0.593 and 0.346 and 0.3891 and 0.3741 | F/F0 ([2]; FLU 3 uM): 0.282 and 0.3083 and 0.312 | F/F0 ([2]; FLU 30 uM): 0.2907 and 0.2708 and 0.2786 | F/F0 ([2]; FLU 50 uM): 0.5223 and 0.4644 and 0.4746 and 0.282 and 0.2723 and 0.2725 | F/F0 ([2]; FLU 100 uM): 0.3008 and 0.2711 and 0.266 | F/F0 ([2]; FLU 150 uM): 0.2772 and 0.2807 and 0.3032 | F/F0 ([2]; FLU 200 uM): 0.2827 and 0.3427 and 0.3531 | EC50 ([2]; n = 3, read-out: EC50): 59.3 nM | EC50 [3]: 25.1 nM | F/F0 ([3]; FLU 1e-5 uM): 0.9549 and 0.9506 and 0.9676 | F/F0 ([3]; FLU 0.0001 uM): 0.9787 and 0.9683 and 0.9464 | F/F0 ([3]; FLU 0.01 uM): 0.8614 and 0.8526 and 0.8697 | F/F0 ([3]; FLU 0.1 uM): 0.4361 and 0.3436 | F/F0 ([3]; FLU 1 uM): 0.3549 and 0.3294 and 0.3747 | F/F0 ([3]; FLU 10 uM): 0.336 and 0.3416 and 0.3434 | F/F0 ([3]; FLU 50 uM): 0.3259 and 0.3223 and 0.3318 | F/F0 ([3]; FLU 100 uM): 0.36 and 0.3376 and 0.3503 | EC50 [4]: 3900 nM | EC50 [5]: 8900 nM | EC50 [6]: 209 nM | F/F0 ([7]; FLU 1e-5 uM): 0.9575 and 0.97 and 0.9884 | F/F0 ([7]; FLU 0.1 uM): 0.9705 and 0.977 and 1.0074 | F/F0 ([7]; FLU 0.5 uM): 0.9668 and 0.9819 and 0.9464 | F/F0 ([7]; FLU 1 uM): 0.9823 and 0.9988 and 0.9262 | F/F0 ([7]; FLU 10 uM): 0.9522 and 0.929 and 0.9507 | F/F0 ([7]; FLU 50 uM): 0.9714 and 0.9397 and 0.895 | F/F0 ([7]; FLU 100 uM): 0.9721 and 0.9871 and 0.9807 | F/F0 ([7]; FLU 200 uM): 0.9521 and 0.9361 and 0.9719 | effect of the double mutation on activity ([7]; time-lapse assay): almost completely abolished | EC50 [8]: > 300000 nM | F/F0 ([8]; FLU 0.1 uM): 0.9354 and 1.022 and 1.001 | F/F0 ([8]; FLU 1 uM): 1.08 and 0.9898 and 1.013 | F/F0 ([8]; FLU 10 uM): 0.9775 and 0.9916 and 0.9858 | F/F0 ([8]; FLU 50 uM): 0.9682 and 0.9415 and 0.9568 | F/F0 ([8]; FLU 100 uM): 0.9687 and 0.9673 and 0.985 | F/F0 ([8]; FLU 150 uM): 1.01 and 0.9761 and 1.006 | F/F0 ([8]; FLU 200 uM): 1.016 and 0.9681 and 1.012 | EC50 [9]: 4 ± 1.4 nM | [3H]ryanodine binding (B/Bmax) ([9]; FLU 0.010 uM): 0.258 and 0.168 and 0.293 and 0.246 | [3H]ryanodine binding (B/Bmax) ([9]; FLU 0.100 uM): 0.203 and 0.262 and 0.293 and 0.332 | [3H]ryanodine binding (B/Bmax) ([9]; FLU 1.000 uM): 0.230 and 0.187 and 0.324 | [3H]ryanodine binding (B/Bmax) ([9]; FLU 10.000 uM): 0.281 and 0.305 and 0.277 and 0.254 | [3H]ryanodine binding (B/Bmax) ([9]; FLU 100.000 uM): 0.242 and 0.340 and 0.234 and 0.262 | [3H]ryanodine binding (B/Bmax) ([10]; FLU 10.000 uM): 0.017 and 0.021 and 0.023 and 0.012 | effect of the double mutation on activity ([10]; [3H]ryanodine binding assay): almost completely abolished | LD50 [11]: 10.4 µM | LD50 ([12]; 24 h feeding, n = 30): AA. | lethality ([12]; in vivo): can no longer kill | fold decrease in sensitivity [13]: > 200 fold | fold decreased sensitivity [14]: 5,400 fold
